In US12377080B2, “Allosteric EGFR inhibitors and methods of use thereof” (Dana-Farber Cancer Institute, Inc., priority 2019, dated 2025):

Assays:
[1] = biological target: EGFR L858R (Homo sapiens (Human), UniProt P00533, L858R); assay: HTRF-based EGFR biochemical assay (L858R); conditions: 100 μM ATP
Procedure: (§1) EGFR biochemical activity measurements were carried out using the homogeneous time-resolved fluorescence (HTRF) assay (Cisbio). Inhibitors and DMSO normalizations were first dispensed to empty black low-volume 384-well plates (Corning) with D300 digital liquid dispenser (HP). All reactions were carried out at room temperature and solutions were added to plates with a Multidrop Combi Reagent Dispenser (ThermoFisher). The reaction mixture (10 μL final volume) contained 1 μM tyrosine kinase peptide-biotin substrate and mutant EGFR in a reaction buffer (50 mM HEPES pH 7,0, 5 mM MgCl2,1 mM MnCl2, 0.01% BSA, 2 mM TCEP, 0.1 mM NaVO4). Enzyme concentrations were adjusted to accommodate varying kinase activities (L858R 0.1 nM, L858R!T790M 0,02 nM). Enzyme reaction solution (2× concentrations, 5 μL) was added to 384-well plates containing compounds and incubated for 30 mins. Enzyme reactions were initiated with the addition of […] of ATP to a final concentration of 100 μM and reacted for 20 mins. Reactions were quenched with the addition of 10 μL of phospho-tyrosine antibody-Europium(III) cryptate (1-to-180 volume ratio) and Streptavidin-XL665 (46.7 nM) in EDTA-containing detection buffer, then incubated at room temperature for 1 hour, and read with a PHERAstar plate reader (excitation =337 nm, emission =620 nm and 665 nm).

[2] = biological target: EGFR L858R/T790M (Homo sapiens (Human), UniProt P00533, L858R/T790M); assay: HTRF-based EGFR biochemical assay (L858R/T790M); conditions: 100 μM ATP
EGFR L858R/T790M, sequence (P00533 25-1210 T790M/L858R): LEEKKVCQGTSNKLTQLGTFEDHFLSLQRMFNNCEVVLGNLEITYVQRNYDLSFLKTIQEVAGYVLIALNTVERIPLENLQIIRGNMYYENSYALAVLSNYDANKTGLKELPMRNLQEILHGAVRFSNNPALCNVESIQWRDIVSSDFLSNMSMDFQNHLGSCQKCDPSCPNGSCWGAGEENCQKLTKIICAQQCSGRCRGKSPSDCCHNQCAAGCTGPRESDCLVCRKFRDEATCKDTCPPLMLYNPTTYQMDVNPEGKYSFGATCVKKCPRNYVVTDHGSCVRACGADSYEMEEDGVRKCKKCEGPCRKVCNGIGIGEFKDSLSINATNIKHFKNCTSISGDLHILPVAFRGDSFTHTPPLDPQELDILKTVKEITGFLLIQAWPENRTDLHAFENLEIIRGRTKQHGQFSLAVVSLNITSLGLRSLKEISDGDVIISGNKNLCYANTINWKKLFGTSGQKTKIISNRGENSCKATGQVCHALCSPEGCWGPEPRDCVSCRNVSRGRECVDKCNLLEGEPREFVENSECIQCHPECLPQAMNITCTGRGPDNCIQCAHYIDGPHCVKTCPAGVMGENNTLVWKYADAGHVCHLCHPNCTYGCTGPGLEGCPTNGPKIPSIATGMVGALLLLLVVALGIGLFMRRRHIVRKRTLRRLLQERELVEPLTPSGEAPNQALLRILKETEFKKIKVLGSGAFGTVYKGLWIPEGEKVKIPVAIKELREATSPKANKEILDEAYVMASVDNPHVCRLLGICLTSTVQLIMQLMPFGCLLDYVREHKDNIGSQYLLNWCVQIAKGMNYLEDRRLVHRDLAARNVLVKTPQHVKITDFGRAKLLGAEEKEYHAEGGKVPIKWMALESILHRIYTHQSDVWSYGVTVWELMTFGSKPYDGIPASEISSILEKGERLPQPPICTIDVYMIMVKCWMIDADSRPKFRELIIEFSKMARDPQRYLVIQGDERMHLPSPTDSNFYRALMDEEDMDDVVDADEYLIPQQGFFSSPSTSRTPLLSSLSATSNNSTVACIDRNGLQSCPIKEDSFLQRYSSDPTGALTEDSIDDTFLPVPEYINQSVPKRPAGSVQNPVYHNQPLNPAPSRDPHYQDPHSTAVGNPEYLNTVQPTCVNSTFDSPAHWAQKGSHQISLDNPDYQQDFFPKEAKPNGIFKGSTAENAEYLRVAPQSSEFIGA
Procedure: as §1

[3] = system: EGFR L858R/T790M mutant Ba/F3 Cells; assay: Ba/F3 cell proliferation (Cell Titer Glo) in combination with cetuximab; format: cell-based, murine; conditions: 72 hours
Source text: The EGFR mutant L858R, Del E746_A750, L858R/T790M, Del E746_A750/T790M, L858R/T790MIC797S, and DellT790MIC797S Ba/F3 cells have been previously described (Zhou, W., et al, Nature 462, 2009, 1070-1074). All cell lines were maintained in RPM I 1640 (Cellgro; Mediatech Inc., Herndon, CA) supplemented with 10% FBS, 100 units/mL penicillin, 100 units/mL streptomycin. The EGFR 1941 R mutation was introduced via site directed mutagenesis using the Quick Change Site-Directed Mutagenesis kit (Stratagene; La Jolla, CA) according to the manufacturer's instructions. All constructs were confirmed by DNA sequencing. The constructs were shuttled into the retroviral vector JP1540 using the Cre-recombination system (Agilent Technologies, Santa Clara, CA). Ba/F3 cells were then infected with retrovirus per standard protocols, as described previously (Zhou, et al, Nature 2009). Stable clones were obtained by selection in puromycin (2 μg/ml),
Growth and inhibition of growth was assessed by the Cell Titer Glo assay (Promega, Madison, WI) and was performed according to the manufacturer's instructions. The Cell Titer Glo assay is a luminescence-based method used to determine the number of viable cells based on quantitation of the ATP present, which is directly proportional to the amount of metabolically active cells present. Ba/F3 cells of different EGFR genotypes were exposed to compounds as a single agent or in combination with […] for 72 hours and the number of cells used per experiment was determined empirically as has been previously established (Zhou, et al., Nature 2009). All experimental points were set up in triplicates in 384-well plates and all experiments were repeated at least three times. […] The curves were fitted using a non-linear regression model with a sigmoidal dose response.

[4] = system: NSCLC that have developed resistance to gefitinib or erlotinib; conditions: patients with NSCLC resistant to gefitinib or erlotinib; cited from earlier work

EGFR L858R, sequence (P00533 25-1210 L858R): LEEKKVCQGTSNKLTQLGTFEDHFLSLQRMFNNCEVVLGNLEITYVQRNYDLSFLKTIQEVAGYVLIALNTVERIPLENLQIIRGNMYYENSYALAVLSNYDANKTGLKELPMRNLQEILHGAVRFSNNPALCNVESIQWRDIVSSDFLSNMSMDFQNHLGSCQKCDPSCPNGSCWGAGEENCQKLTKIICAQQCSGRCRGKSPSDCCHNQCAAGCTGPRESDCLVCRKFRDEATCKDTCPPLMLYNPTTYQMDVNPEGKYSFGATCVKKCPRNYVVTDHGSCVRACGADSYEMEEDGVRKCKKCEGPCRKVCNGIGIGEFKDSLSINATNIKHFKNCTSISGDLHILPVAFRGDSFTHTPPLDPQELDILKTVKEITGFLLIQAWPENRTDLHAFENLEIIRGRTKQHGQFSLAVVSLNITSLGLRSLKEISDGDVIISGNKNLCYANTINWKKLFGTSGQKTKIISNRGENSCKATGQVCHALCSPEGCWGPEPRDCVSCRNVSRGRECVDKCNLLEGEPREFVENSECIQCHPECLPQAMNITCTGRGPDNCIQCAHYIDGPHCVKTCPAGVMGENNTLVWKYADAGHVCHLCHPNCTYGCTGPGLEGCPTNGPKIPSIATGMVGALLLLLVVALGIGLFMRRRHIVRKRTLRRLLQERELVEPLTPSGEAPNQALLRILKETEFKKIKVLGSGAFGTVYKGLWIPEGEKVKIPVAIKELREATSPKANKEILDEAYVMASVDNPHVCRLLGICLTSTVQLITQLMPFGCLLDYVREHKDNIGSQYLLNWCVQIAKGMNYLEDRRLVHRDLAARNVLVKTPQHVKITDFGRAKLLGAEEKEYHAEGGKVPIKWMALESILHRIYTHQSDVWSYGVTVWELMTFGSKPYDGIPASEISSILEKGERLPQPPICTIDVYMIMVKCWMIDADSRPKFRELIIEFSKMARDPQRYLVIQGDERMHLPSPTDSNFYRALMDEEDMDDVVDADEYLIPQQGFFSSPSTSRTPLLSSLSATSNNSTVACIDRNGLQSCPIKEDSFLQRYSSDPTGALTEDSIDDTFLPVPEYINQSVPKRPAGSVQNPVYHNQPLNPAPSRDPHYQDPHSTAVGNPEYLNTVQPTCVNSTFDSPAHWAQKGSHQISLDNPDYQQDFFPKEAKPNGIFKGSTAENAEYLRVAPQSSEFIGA

| IC50 ([1]; cells printed in μM) [µM] | IC50 [2] [nM] | IC50 [3] [nM] | IC50 [1] [µM] | Structure (SMILES) | RR (response rate) [4] |
| --- | --- | --- | --- | --- | --- |
| > 1 | 41 | 1910 |  | CN1CCN(c2ccc(-c3cnc4c(c3)C(=O)N(C(C(=O)Nc3ccccn3)c3cccc(F)c3)C4)cn2)CC1 (stereo not shown) [Compound 12, 2-(3-fluorophenyl)-2-(3-(6-(4-methylpiperazin-1-yl)pyridin-3-yl)-5-oxo-5,7-dihydro-6H-pyrrolo[3,4-b]pyridin-6-yl)-N-(pyridin-2-yl)acetamide] |  |
|  | 9 | 220 | 0.126 | CN1CCC(c2ccc(-c3cnc4c(c3)C(=O)N(C(C(=O)Nc3nccs3)c3cccc(F)c3)C4)cn2)CC1 (stereo not shown) [Compound 18, 2-(3-fluorophenyl)-2-(3-(6-(1-methylpiperidin-4-yl)pyridin-3-yl)-5-oxo-5,7-dihydro-6H-pyrrolo[3,4-b]pyridin-6-yl)-N-(thiazol-2-yl)acetamide] |  |
|  |  |  |  | CN(C)C/C=C/C(=O)Nc1cc2c(Nc3ccc(F)c(Cl)c3)ncnc2cc1O[C@H]1CCOC1 [afatinib] | less than 10% |
